Experimental findings from a melting point compilation (Tetko et al.; mined from patent text by program, amines drawn as free bases though some values may be those of a salt) are described below.

In turn, `CCOC(=O)c1c(C(=O)OCC)c(-c2ccc(OC(C)C)c(OC(C)C)c2)c2cc3c(cc2c1O)OCO3` yielded a melting point of 123 to 124 °C. Compound `COC1=C(C)C(=O)OC1O` (centres undefined) showed a melting point of 79 °C. The compound `COc1ccc(CN2C(=O)C(N)C(=O)N(CC34CC5CC(CC(C5)C3)C4)c3ccccc32)cc1` (centres undefined) displayed a melting point of 223 to 225 °C.

Regarding `O=Cc1cc2cc(OCc3ccccc3)c(F)cc2nc1Cl`, the melting point was determined as 228 °C. The same measure for `COc1ccc(CNc2nc(Cl)ncc2C(=O)c2cc(OC)c(OC)c(OC)c2)cc1Cl`: 165 °C; for `ClCCCOc1ccccc1Cc1cccc2[nH]ccc12`: 75 °C.

For the compound `COc1cc(OC)c(-c2cccs2)cc1/C=C/C(=O)c1ccc(S(=O)(=O)NCCCn2ccnc2)cc1`, the melting point was in the range of 160 to 162 °C.

`CSC(=CC(=O)c1ccccc1)CC(=O)c1ccccc1` came in with a melting point of 106 to 108 °C.

Regarding `Cc1c2c(c(C(O)c3ccccn3)c(C)c1NC(=O)CC(C)(C)C)OC(C)(C)C2` (centres undefined), the melting point was in the range of 176 to 177 °C.

As for `CCOC(=O)C(C#N)(CCCN(C)CCc1cccc(C(=O)OC)c1)c1ccc(OC)c(OC)c1` (centres undefined), the melting point lay within 89 to 91 °C. The compound `CCOC(OCC)c1cc(NC(c2ccccc2)(c2ccccc2)c2ccccc2)c(F)c(CC2CC2)n1` had a melting point of 120 to 121 °C. In the case of `C[C@@H](CN(Cc1ccccc1)Cc1ccccc1)OC(=O)N1C(C)(C)COC1(C)C`, the melting point worked out at 117 °C. `Cc1ccc(CN2CCSC2=O)cc1` gave a melting point of 49 to 50 °C.

Regarding `CCCCCCCCCCCCCCCCCNC(=O)OCCOCCOC(=O)NCc1ccccn1`, the melting point lay within 91 to 92 °C.

Take `N#CC(C(=O)Nc1ccc(F)cc1F)C(=O)c1ccc[nH]1` (centres undefined): the melting point is 169 to 171 °C. The same measure for `CCOC(=O)N1CCC(c2ccc(COc3ccc(S(C)(=O)=O)cc3)nc2)CC1`: 119 to 121 °C. The same measure for `Cc1oc(-c2ccccc2)nc1COc1ccc(COc2ncccc2C=O)cc1`: 97 to 98 °C. The compound `CCc1nc2nccc(-c3cccc(C(F)(F)F)c3)n2n1` displayed a melting point of 132 to 134 °C. The same measure for `ClC(Cl)(Cl)c1nnc(C=Cc2ccc(C=Cc3ccccc3)cc2)o1`: 176 to 178 °C; for `CC(C(=O)O)c1ccc(C(=O)c2ccc(Cl)s2)cc1` (centres undefined): 137 °C; for `CNC(=O)[C@@H](C[C@H](O)[C@H](CC1CCCCC1)NC(=O)OC(C)(C)C)C1(O)CCCCC1`: 175 to 177 °C. The same measure for `Nc1nc(N)c2c(ccc3[nH]c4c(c32)CCCC4)n1`: 300 to 303 °C. In the case of `CCOC(=O)c1cc2cc(Oc3ccc(S(C)(=O)=O)cc3)cc(OCc3nccn3C)c2[nH]1` it was 91 to 92 °C; in that of `CCCCOc1cc(/C=C(\OCC)C(=O)O)ccc1OCCc1ccc(N(C)S(C)(=O)=O)cc1`, 112 °C.

With `COc1ccc(-c2ccnc3c(C(=O)c4cccs4)cnn23)cc1NC(=O)OC(C)C`, the melting point lay within 193 to 195 °C. Turning to `O=[N+]([O-])c1ccc(OCCc2ccc(CCl)cn2)cc1`, the melting point lay in the range of 77 to 78 °C.

`COc1ccc(C2OC(O[Si](C)(C)C)(C(F)(F)F)C(C)(C)N2C(=O)COc2ccccc2)cc1` (centres undefined): the melting point lay within 89 to 92 °C. In the case of `CC(CN1CCCC1)N1c2ccccc2Sc2ccc(C(=O)NC3CCCC3)cc21` (racemic) it was 132 °C; in that of `N#Cc1ccc(-c2nc(Cl)c3c(n2)CCCC3)cc1`, 190 °C; in that of `CC1N=C(c2ccccc2F)c2cc(C(C)N)ccc2N(C)C1=O` (centres undefined), 48 to 50 °C.

In turn, `N#Cc1c[nH]c(-c2ccc(F)cc2)c1` registered a melting point of 158 to 159 °C. In turn, `COc1ccc(-c2ccc(C(=O)Nc3ccc4cc(CN5CCCCC5)cnc4c3C)c(F)c2)cc1` displayed a melting point of 191 to 192 °C. In the case of `CCCCNC(=O)CCC(=O)O` it was 93.5 to 94.5 °C; in that of `Cn1cc(C(=O)NCc2ccc(Cl)cc2)c(=O)c2cc(CN(CCO)Cc3ccccc3)ccc21`, 133 to 135 °C.

As a reminder, the melting point is the temperature of the solid-liquid transition.
